Data as given in patent US11071735B2, “Treatment of inflammatory conditions and autoimmune diseases with glucose uptake inhibitors” (Kadmon Corporation, LLC, priority 2017, dated 2021).

Tests used:
Type in all cases: cell-based
[1] = test system: GLUT; experiment: glycolysis assay (oligomycin + Cell Titer-Glo ATP readout) in HT1080 cells; conditions: 10 μM oligomycin, one hour, glycolytically-derived ATP
Excerpt: The combination of inhibitors of both oxidative phosphorylation and glycolysis synergistically suppress cellular ATP levels. Therefore, our assay utilizes the combination of our glucose uptake inhibitors with oligomycin, a well-characterized inhibitor of ATP synthase. Because oligomycin inhibits ATP derived from oxidative phosphorylation, any remaining ATP production is derived from glycolysis. By reading out cellular ATP levels using the Promega
Titer Glo kit, we can assess the extent of glycolysis inhibition by our glucose uptake inhibitors. Using this experimental set-up in HT1080 cancer cells, we determined the IC50 of glycolysis inhibition for the compounds.
(§1) Determination of glucose uptake/GLUT activity (glycolysis assay): HT1080 cells, DLD1 cells (WT and GLUT1−/−) and human CD4+ T cells were plated in 96-well plates. Cells were exposed to the combination of 10 μM Oligomycin (to block mitochondrial-derived ATP) and the glucose uptake inhibitors disclosed herein for one-hour, after which glycolytically-derived ATP was measured with the Cell Titer-Glo assay kit (Promega). Dose-response curves of the glucose uptake inhibitors disclosed herein were used to determine the IC50 for GLUT activity.

[2] = biological target: T1, GLUT3 (Homo sapiens, UniProt P11169); experiment: glycolysis assay in DLD1 GLUT1−/− cells (rely on GLUT3); conditions: DLD1-KO (GLUT1−/−) cells; 10 μM oligomycin, one hour
T1 construct: endogenous in cells; host or cells: DLD1 GLUT1−/− (knock-out) cancer cells
T1 sequence (P11169 1-496): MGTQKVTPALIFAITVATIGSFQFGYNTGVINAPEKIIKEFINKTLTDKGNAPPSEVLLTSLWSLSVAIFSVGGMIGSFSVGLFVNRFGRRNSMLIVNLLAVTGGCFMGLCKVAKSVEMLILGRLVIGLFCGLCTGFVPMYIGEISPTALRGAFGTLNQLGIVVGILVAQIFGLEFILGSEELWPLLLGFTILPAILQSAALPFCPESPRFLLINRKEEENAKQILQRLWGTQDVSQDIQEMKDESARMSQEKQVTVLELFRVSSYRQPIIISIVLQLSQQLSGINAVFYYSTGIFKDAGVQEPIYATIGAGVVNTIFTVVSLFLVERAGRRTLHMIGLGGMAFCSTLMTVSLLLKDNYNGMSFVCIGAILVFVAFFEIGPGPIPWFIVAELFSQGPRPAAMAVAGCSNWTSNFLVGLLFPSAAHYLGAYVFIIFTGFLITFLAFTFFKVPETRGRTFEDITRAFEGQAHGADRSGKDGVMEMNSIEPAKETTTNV
Description: (§2) Cells were treated with GLUT inhibitors plus oligomycin and subsequently ATP levels were determined using Cell Titer Glo. […] FIG. 1B reports the IC50 of glycolysis inhibition for selected compounds.
(§3) Accordingly, we have investigated the use of inhibitors of GLUT transporters against activated pro-inflammatory immune cells, including but not limited to activated human CD4+ T cells. In order to understand what GLUT transporters are required to sustain glycolysis in activated T cells, we first utilized the syngeneic cancer cell lines DLD1 WT and DLD GLUT1−/− that rely on GLUT1 and GLUT3 expression, respectively, for glucose transport. Within this system, we have identified small molecules that simultaneously have the property of inhibiting both GLUT1 and GLUT3 mediated glucose transport. In addition, we have confirmed the GLUT1-selective nature of a published small molecule inhibitor of GLUT1 (Chem Med Chem. 2016 Oct. 19; 11(20):2261-2271).
as §1

[3] = biological target: T2, GLUT1 (Homo sapiens, UniProt P11166); experiment: glycolysis assay in DLD1 WT cells (rely on GLUT1); conditions: DLD1-WT cells; 10 μM oligomycin, one hour
T2 construct: endogenous in cells; host or cells: DLD1 WT cancer cells
T2 sequence (P11166 1-492): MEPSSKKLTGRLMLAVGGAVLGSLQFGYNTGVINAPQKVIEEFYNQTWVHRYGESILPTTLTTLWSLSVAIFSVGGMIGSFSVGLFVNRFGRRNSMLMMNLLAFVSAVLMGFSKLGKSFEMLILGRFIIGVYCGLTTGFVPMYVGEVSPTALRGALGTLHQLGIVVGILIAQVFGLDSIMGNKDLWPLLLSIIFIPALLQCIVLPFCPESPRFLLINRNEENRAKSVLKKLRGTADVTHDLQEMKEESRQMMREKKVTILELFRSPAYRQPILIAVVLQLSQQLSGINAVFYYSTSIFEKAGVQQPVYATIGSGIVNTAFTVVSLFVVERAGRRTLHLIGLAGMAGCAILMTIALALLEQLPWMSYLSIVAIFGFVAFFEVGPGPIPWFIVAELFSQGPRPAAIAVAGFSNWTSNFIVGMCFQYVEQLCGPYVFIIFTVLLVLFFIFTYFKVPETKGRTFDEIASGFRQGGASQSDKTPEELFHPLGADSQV
Description: as §2, §3, §1

IC50 [1] [nM] | IC50 [2] [nM] | IC50 [3] [nM] | Structure (SMILES)
44.7 | 72.1 | 38.5 | CC[C@@H](C)NC(=O)COc1cccc(-c2nc(Nc3ccc(-c4cn[nH]c4)cc3)c3cc(OCCF)ccc3n2)c1 [Ex. 50, (R)-2-(3-(4-((4-(1H-pyrazol-4-yl)phenyl)amino)-6-(2-fluoroethoxy)quinazolin-2-yl)phenoxy)-N-(sec-butyl)acetamide]
367 | 76.1 | 529 | COc1ccc2nc(-c3cccc(OCC(=O)NC4CC4)c3)nc(Nc3ccc(-c4cn[nH]c4)cc3)c2c1 [Ex. 9, 2-(3-(4-((4-(1H-pyrazol-4-yl)phenyl)amino)-6-methoxyquinazolin-2-yl)phenoxy)-N-cyclopropylacetamide]
58.9 | 110 | 40.5 | COc1ccc2nc(-c3cccc(OCC(=O)NC4CCCC4)c3)nc(Nc3ccc(-c4cn[nH]c4)cc3)c2c1 [Ex. 10, 2-(3-(4-((4-(1H-pyrazol-4-yl)phenyl)amino)-6-methoxyquinazolin-2-yl)phenoxy)-N-cyclopentylacetamide]
44 | 33.6 | 59.6 | CCOc1ccc2nc(-c3cccc(OCC(=O)NC(C)(C)C)c3)nc(Nc3ccc(-c4cn[nH]c4)cc3)c2c1 [Ex. 3, 2-(3-(4-((4-(1H-pyrazol-4-yl)phenyl)amino)-6-ethoxyquinazolin-2-yl)phenoxy)-N-(tert-butyl)acetamide]
196 | 290 | 146 | CC[C@H](C)NC(=O)COc1cccc(-c2nc(Nc3ccc(-c4cn[nH]c4)cc3)c3ccc(F)cc3n2)c1 [Ex. 54, (S)-2-(3-(4-((4-(1H-pyrazol-4-yl)phenyl)amino)-7-fluoroquinazolin-2-yl)phenoxy)-N-(sec-butyl)acetamide]
60.8 | 51.5 | 65.7 | CC(C)(C)NC(=O)COc1cccc(-c2nc(Nc3ccc(-c4cn[nH]c4)cc3)c3cc(OCCF)ccc3n2)c1 [Ex. 38, 2-(3-(4-((4-(1H-Pyrazol-4-yl)phenyl)amino)-6-(2-fluoroethoxy)quinazolin-2-yl)phenoxy)-N-(tert-butyl)acetamide]
173 | 97.6 | 261 | COc1ccc2nc(-c3cccc(OCC(=O)NC(C)C)c3)nc(Nc3ccc(-c4cn[nH]c4)cc3)c2c1 [Ex. 8, 2-(3-(4-((4-(1H-pyrazol-4-yl)phenyl)amino)-6-methoxyquinazolin-2-yl)phenoxy)-N-isopropylacetamide]
1350 | 325 | 3480 | COc1ccc2nc(-c3cc(F)cc(OCC(=O)NC(C)C)c3)nc(Nc3ccc(-c4cn[nH]c4)cc3)c2c1 [Ex. 11, 2-(3-(4-((4-(1H-pyrazol-4-yl)phenyl)amino)-6-methoxyquinazolin-2-yl)-5-fluorophenoxy)-N-isopropylacetamide]
545 | 105 | 496 | CCOc1ccc2nc(-c3cccc(OCC(=O)NC(C)C)c3)nc(Nc3ccc(-c4cc[nH]n4)cc3)c2c1 [Ex. 28, 2-(3-(4-((4-(1H-Pyrazol-3-yl)phenyl)amino)-6-ethoxyquinazolin-2-yl)phenoxy)-N-isopropylacetamide]
283 | 271 | 222 | CCC(C)NC(=O)COc1cccc(-c2nc(Nc3ccc(-c4cn[nH]c4)cc3)c3ccc(F)cc3n2)c1 (stereo not drawn) [Ex. 53, 2-(3-(4-((4-(1H-pyrazol-4-yl)phenyl)amino)-7-fluoroquinazolin-2-yl)phenoxy)-N-(sec-butyl)acetamide]
30.7 | 50.9 | 30.3 | CC[C@@H](C)NC(=O)COc1cccc(-c2nc(Nc3ccc(-c4cn[nH]c4)cc3)c3cc(OCCOC)ccc3n2)c1 [Ex. 49, (R)-2-(3-(4-((4-(1H-pyrazol-4-yl)phenyl)amino)-6-(2-methoxyethoxy)quinazolin-2-yl)phenoxy)-N-(sec-butyl)acetamide]
169 | 66.1 | 257 | CCOc1ccc2nc(-c3cccc(OCC(=O)NC4CC(F)(F)C4)c3)nc(Nc3ccc(-c4cn[nH]c4)cc3)c2c1 [Ex. 19, 2-(3-(4-((4-(1H-pyrazol-4-yl)phenyl)amino)-6-ethoxyquinazolin-2-yl)phenoxy)-N-(3,3-difluorocyclobutyl)acetamide]
189 | 134 | 47 | COc1ccc2nc(-c3cccc(OCC(=O)NCC(C)C)c3)nc(Nc3ccc(-c4cn[nH]c4)cc3)c2c1 [Ex. 14, 2-(3-(4-((4-(1H-pyrazol-4-yl)phenyl)amino)-6-methoxyquinazolin-2-yl)phenoxy)-N-isobutylacetamide]
166 | 92.2 | 334 | CCOc1ccc2nc(-c3cccc(OCC(=O)NCC(C)C)c3)nc(Nc3ccc(-c4cn[nH]c4)cc3)c2c1 [Ex. 17, 2-(3-(4-((4-(1H-pyrazol-4-yl)phenyl)amino)-6-ethoxyquinazolin-2-yl)phenoxy)-N-isobutylacetamide]
424 | 183 | 802 | CC(C)NC(=O)COc1cccc(-c2nc(Nc3ccc(-c4cn[nH]c4)cc3)c3cc(F)ccc3n2)c1 [Ex. 33, 2-(3-(4-((4-(1H-pyrazol-4-yl)phenyl)amino)-6-fluoroquinazolin-2-yl)phenoxy)-N-isopropylacetamide]

Structure (SMILES) | IC50 [1] [nM] | IC50 [2] [nM] | IC50 [3] [nM]
CC(C)(C)NC(=O)COc1cccc(-c2nc(Nc3ccc(-c4cn[nH]c4)cc3)c3ccc(F)cc3n2)c1 [Ex. 30, 2-(3-(4-((4-(1H-Pyrazol-4-yl)phenyl)amino)-7-fluoroquinazolin-2-yl)phenoxy)-N-(tert-butyl)acetamide] | 425 | 195 | 624
CCCNC(=O)COc1cccc(-c2nc(Nc3ccc(-c4cn[nH]c4)cc3)c3cc(OCC)ccc3n2)c1 [Ex. 16, 2-(3-(4-((4-(1H-pyrazol-4-yl)phenyl)amino)-6-ethoxyquinazolin-2-yl)phenoxy)-N-propylacetamide] | 536 | 127 | 1020
CC(C)NC(=O)COc1cccc(-c2nc(Nc3ccc(-c4cn[nH]c4)cc3)c3cc(OCCF)ccc3n2)c1 [Ex. 40, 2-(3-(4-((4-(1H-Pyrazol-4-yl)phenyl)amino)-6-(2-fluoroethoxy)quinazolin-2-yl)phenoxy)-N-isopropylacetamide] | 98 | 68.3 | 160
COc1ccc2nc(-c3cccc(OCC(=O)NC(C)C)c3)nc(Nc3ccc(-c4cn[nH]c4)cc3F)c2c1 [Ex. 20, 2-(3-(4-((2-fluoro-4-(1H-pyrazol-4-yl)phenyl)amino)-6-methoxyquinazolin-2-yl)phenoxy)-N-isopropylacetamide] | 423 | 177 | 709
CCOc1ccc2nc(-c3cccc(OCC(=O)NC(C)(C)C)c3)nc(Nc3ccc(-c4cc[nH]n4)cc3)c2c1 [Ex. 27, 2-(3-(4-((4-(1H-Pyrazol-3-yl)phenyl)amino)-6-ethoxyquinazolin-2-yl)phenoxy)-N-(tert-butyl)acetamide] | 310 | 116 | 252
